Measurements published in patent US10245267B2, “Biaryl amide compounds as kinase inhibitors” (NOVARTIS AG, priority 2013, dated 2019).
Where two headings read alike, the source gives them in different places.

What was measured:
[1] = target: C-Raf FL (full-length C-Raf protein) (Homo sapiens (Human), UniProt P04049, Y340E/Y341E); format: biochemical; details: read-out: c-Raf FL IC-50
b-Raf(V600E) = b-Raf(V600E) (Homo sapiens (Human), UniProt P15056, V600E); details: read-out: b-Raf IC-50; Table 2; Alpha Screen, ATP 10 μM, 3 hours reaction
[2] = Table 2, Alpha Screen, ATP 1 uM, 1 hour reaction

C-Raf FL (full-length C-Raf protein), sequence (P04049 whole entry Y340E/Y341E): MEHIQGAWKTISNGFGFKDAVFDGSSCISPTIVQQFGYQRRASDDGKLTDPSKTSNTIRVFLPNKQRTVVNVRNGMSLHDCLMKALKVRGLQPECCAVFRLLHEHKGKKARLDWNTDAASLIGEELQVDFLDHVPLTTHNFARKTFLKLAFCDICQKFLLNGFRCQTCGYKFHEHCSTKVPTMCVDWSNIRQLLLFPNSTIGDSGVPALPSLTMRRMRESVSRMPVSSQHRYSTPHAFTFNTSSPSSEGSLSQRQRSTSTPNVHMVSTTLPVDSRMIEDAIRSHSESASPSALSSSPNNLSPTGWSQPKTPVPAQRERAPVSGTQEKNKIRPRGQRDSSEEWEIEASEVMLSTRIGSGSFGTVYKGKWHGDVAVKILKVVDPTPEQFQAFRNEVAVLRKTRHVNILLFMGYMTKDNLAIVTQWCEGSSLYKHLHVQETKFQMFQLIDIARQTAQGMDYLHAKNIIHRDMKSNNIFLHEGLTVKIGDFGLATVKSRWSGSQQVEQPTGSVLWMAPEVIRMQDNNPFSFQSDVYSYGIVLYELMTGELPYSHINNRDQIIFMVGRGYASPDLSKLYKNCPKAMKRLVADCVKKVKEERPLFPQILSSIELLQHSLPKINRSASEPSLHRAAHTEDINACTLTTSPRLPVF
C-Raf FL (full-length C-Raf protein), sequence (P63104 whole entry partner): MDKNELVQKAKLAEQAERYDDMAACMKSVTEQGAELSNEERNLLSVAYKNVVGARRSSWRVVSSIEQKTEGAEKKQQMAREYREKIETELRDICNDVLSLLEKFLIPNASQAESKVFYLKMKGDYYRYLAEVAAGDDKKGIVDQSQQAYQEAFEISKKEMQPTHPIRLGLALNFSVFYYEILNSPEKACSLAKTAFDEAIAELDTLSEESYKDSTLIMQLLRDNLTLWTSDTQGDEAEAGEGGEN
b-Raf(V600E), sequence (P15056 whole entry V600E): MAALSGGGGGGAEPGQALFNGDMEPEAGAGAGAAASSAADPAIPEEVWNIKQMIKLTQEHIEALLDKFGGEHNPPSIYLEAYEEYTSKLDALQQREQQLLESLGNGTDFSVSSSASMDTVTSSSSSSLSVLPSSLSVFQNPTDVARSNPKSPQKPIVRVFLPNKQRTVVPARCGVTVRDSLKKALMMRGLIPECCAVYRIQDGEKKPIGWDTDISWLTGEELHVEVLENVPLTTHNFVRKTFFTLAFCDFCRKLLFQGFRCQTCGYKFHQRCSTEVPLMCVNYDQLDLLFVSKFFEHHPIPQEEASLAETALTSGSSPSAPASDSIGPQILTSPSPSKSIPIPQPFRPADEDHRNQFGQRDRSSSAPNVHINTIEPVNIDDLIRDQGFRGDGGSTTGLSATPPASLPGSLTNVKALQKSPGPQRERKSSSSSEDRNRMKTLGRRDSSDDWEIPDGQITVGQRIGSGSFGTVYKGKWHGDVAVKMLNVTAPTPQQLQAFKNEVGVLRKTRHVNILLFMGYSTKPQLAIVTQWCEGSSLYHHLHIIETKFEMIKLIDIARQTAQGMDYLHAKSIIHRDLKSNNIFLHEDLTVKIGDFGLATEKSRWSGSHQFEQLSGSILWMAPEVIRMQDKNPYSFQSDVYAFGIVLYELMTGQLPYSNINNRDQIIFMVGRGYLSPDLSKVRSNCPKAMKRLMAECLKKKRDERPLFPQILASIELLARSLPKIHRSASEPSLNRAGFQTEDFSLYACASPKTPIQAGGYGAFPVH

| IC50 [1, 2] | IC50 (b-Raf(V600E)) | Compound | IC50 [1] |
| --- | --- | --- | --- |
| 0.2 nM | 0.9 nM | Cc1ccc(NC(=O)c2cccc(C(F)(F)F)c2)cc1-c1cc(N2CCOCC2)c(OCCO)nn1 [Example 590, N-(3-(6-(2-hydroxyethoxy)-5-morpholinopyridazin-3-yl)-4-methylphenyl)-3-(trifluoromethyl)benzamide] | – |
| 1.6 nM | 4 nM | CCNc1nc(-c2cc(C(=O)Nc3cccc(C(F)(F)F)c3)ccc2C)cc(N2CCOCC2)n1 [Example 710, 3-(2-(ethylamino)-6-morpholinopyrimidin-4-yl)-4-methyl-N-(3-(trifluoromethyl)phenyl) benzamide] | – |
| – | – | Cc1ncc(NC(=O)c2cccc(C(F)(F)F)c2)cc1-c1cc(N2CCOCC2)nc(NC[C@@H](C)O)n1 [Example 743, (R)—N-(5-(2-((2-hydroxypropyl)amino)-6-morpholinopyrimidin-4-yl)-6-methylpyridin-3-yl)-3-(trifluoromethyl) benzamide] | 0.8 nM |
| – | 2 nM | CCNc1nc(-c2cc(NC(=O)c3ccnc(C(F)(F)F)c3)ccc2C)cc(N2CCOCC2)n1 [Example 719, N-(3-(2-(ethylamino)-6-morpholinopyrimidin-4-yl)-4-methylphenyl)-2-(trifluoromethyl) isonicotinamide] | – |
